What was measured:
Settings in all cases: application rate 16 g/ha, post-emergence method, scale from 0 to 100
AMARE = assay: greenhouse herbicidal activity, post-emergence, AMARE; assay type: in vivo, Amaranthus retroflexus
From the text: (§1) The seeds of the test plants were sown separately for each species. For the pre-emergence treatment, the active ingredients, which had been suspended or emulsified in water, were applied directly after sowing by means of finely distributing nozzles. The containers were irrigated gently to promote germination and growth and subsequently covered with transparent plastic hoods until the test plants had rooted. This cover caused uniform germination of the test plants, unless this had been impaired by the active ingredients. For the post-emergence treatment, the test plants were first grown to a height of 3 to 15 cm, depending on the plant habit, and only then treated with the active ingredients which had been suspended or emulsified in water. For this purpose, the test plants were either sown directly and grown in the same containers, or they were first grown separately as seedlings and transplanted into the test containers a few days prior to treatment. Depending on the species, the test plants were kept at 10-25° C. or 20-35° C., respectively. The test period extended over 2 to 4 weeks. During this time, the test plants were tended, and their response to the individual treatments was evaluated. Evaluation was carried out using a scale from 0 to 100. […]

CHEAL = assay: greenhouse herbicidal activity, post-emergence, CHEAL; assay type: in vivo, Chenopodium album
From the text: as §1

ECHCG = assay: greenhouse herbicidal activity, post-emergence, ECHCG; assay type: in vivo, Echinocloa crus-galli
From the text: as §1

SETVI = assay: greenhouse herbicidal activity, post-emergence, SETVI; assay type: in vivo, Setaria viridis
From the text: as §1

Row | Compound | herbicidal activity against AMARE (AMARE) | herbicidal activity against CHEAL (CHEAL) | herbicidal activity against ECHCG (ECHCG) | herbicidal activity against SETVI (SETVI)
1 | COC(=O)CCNC(=O)C(C)Sc1nc(-n2c(=O)cc(C(F)(F)F)n(C)c2=O)c(F)cc1Cl (stereo not shown) [Example 1, Methyl 3-[2-[[3-chloro-5-fluoro-6-[3-methyl-2,6-dioxo-4-(trifluoromethyl)pyrimidin-1-yl]-2-pyridyl]sulfanyl]propanoylamino]propanoate] | very good herbicidal activity (a very good herbicidal activity is given at values of at least 85) | very good herbicidal activity (a very good herbicidal activity is given at values of at least 85) | very good herbicidal activity (a very good herbicidal activity is given at values of at least 85) | very good herbicidal activity (a very good herbicidal activity is given at values of at least 85)
2 | CCOC(=O)CCNC(=O)COc1nc(-n2c(=O)cc(C(F)(F)F)n(C)c2=O)c(F)cc1Cl [Example 2] | very good herbicidal activity (a very good herbicidal activity is given at values of at least 85) | very good herbicidal activity (a very good herbicidal activity is given at values of at least 85) |  | very good herbicidal activity (a very good herbicidal activity is given at values of at least 85)

— US12247017B2, “Herbicidal uracilpyridines” (BASF SE, priority 2019, dated 2025)
